Results published in the OPERA property sets (Mansouri et al. 2018).

Row | Compound | logP
1 | Clc1c(Cl)c(Cl)c(-c2ccccc2)c(Cl)c1Cl | 6.75
2 | CCOP(=S)(OCC)Oc1cc(Cl)c(Br)cc1Cl | 6.15
3 | COP(=S)(OC)Oc1cc(Cl)c(I)cc1Cl | 5.51
4 | Clc1cc(Cl)c(Cl)c(-c2c(Cl)c(Cl)cc(Cl)c2Cl)c1Cl | 7.73
5 | CCCCc1ccccc1 | 4.38
6 | ClC1=C(Cl)[C@]2(Cl)[C@@H]3[C@@H]4C[C@@H]([C@H]5O[C@@H]45)[C@@H]3[C@@]1(Cl)C2(Cl)Cl (single isomer, unassigned) | 5.4
7 | CCCCC(CC)COC(=O)c1ccccc1C(=O)OCC(CC)CCCC (stereo not drawn) | 7.6
8 | Clc1cccc(Cl)c1-c1c(Cl)cccc1Cl | 5.94
9 | Clc1c(Cl)c(Cl)c(Cl)c(Cl)c1Cl | 5.73
10 | Clc1cc(-c2cc(Cl)c(Cl)c(Cl)c2)cc(Cl)c1Cl | 7.41
11 | ClC1=C(Cl)[C@]2(Cl)[C@H]3[C@H]([C@@H]4C=C[C@H]3C4)[C@@]1(Cl)C2(Cl)Cl (racemic) | 6.5
12 | Clc1ccc(-c2ccc(Cl)c(Cl)c2)cc1Cl | 6.63
13 | CCc1ccc2c(c1)C(=O)c1ccccc1C2=O | 4.37
